From patent publication US20130122024A1, “NEW BINDER-DRUG CONJUGATES (ADCS) AND USE THEREOF” (Bayer Intellectual Property GmbH, priority 2011, published 2013)
Where “and” joins values, the source holds several entries; their conditions need not be identical. Identical values can stand only once. Entries after “also recorded” stand apart in the source; their conditions may differ. Counter-ions that a name gives are not always drawn. Square brackets hold non-standard residues; d marks the D form. Peptide text beside a SMILES is read from it. * marks the point of attachment. X2 = CC(C)[C@@H](C(=O)*)N(C)CCCCCCN1C(=O)CC(SC[C@H](N)C(=O)O)C1=O; X3 = CC(C)[C@@H](C(=O)*)N(C)CCOCCOCCOCCC(=O)NCCCC[C@H](N)C(=O)O; X4 = C[C@@H](O)[C@@H](C(=O)*)N(C)CCCCCC(=O)NCCCC[C@H](N)C(=O)O; X1 = CC(C)[C@@H](C(=O)*)N(C)CCCCCC(=O)NCCCC[C@H](N)C(=O)O; Dolaproine = CO[C@@H]([C@@H]1CCCN1)[C@@H](C)C(=O)O; Dil = CC[C@H](C)[C@H](NC)[C@@H](CC(=O)O)OC; Oxazinan2yl(1,2) = C1CCN(*)OC1; NMeV = CN[C@H](C(=O)O)C(C)C

Legend:
tubulin = assay: Fluorescence-based microtubule (tubulin) polymerization assay; format: biochemical
Method: Tubulin polymerization was investigated using the “Fluorescence-based Microtubule Polymerisation Assay Kit” from Cytoskeleton (Denver, Colo., USA; order number: BK011). With this assay, GTP is added to unpolymerized tubulin, allowing polymerization to take place spontaneously. The assay is based on the binding of the fluorophore 4′,6-di-amidino-2-phenylindole (DAPI) to tubulin. Free and bound DAPI can be differentiated on the basis of different emission spectra.
[…] In addition to the buffer control, paclitaxel, with a polymerization-increasing effect, and vinblastin, with a polymerization inhibiting effect, were run additionally as assay controls. Measurement was carried out using 96-well plates with a half base area. The kinetics of the tubulin polymerization were monitored in a Fluorimeter at 37° C. for 1 hour. The excitation wavelength was 355 nm, and emission was monitored at 460 nm. For the region of linear increase within the first 10 minutes, a calculation was made of the change in fluorescence per minute (ΔF/min), which represents the polymerization rate of the microtubuli. The potency of the test substances was quantified on the basis of their respective reduction of the polymerization rate.
The reduction in the tubulin polymerization rate occurs in dependence on the concentration of the test substance added.

Caco-2 cells = assay: Caco-2 flux assay for cell permeability; format: in vitro ADME; conditions: 2 hours, B to A
Method: The cell permeability of a substance can be investigated by means of in vitro testing in a flux assay using Caco-2 cells [M. D. Troutman and D. R. Thakker, Pharm. Res. 20 (8), 1210-1224 (2003)]. For this purpose, the cells were cultured for 15-16 days on 24-well filter plates. For the determination of permeation, the respective working example was applied in a HEPES buffer to the cells either apically (A) or basally (B) and incubated for 2 hours. After 0 hours and after 2 hours, samples were taken from the cis and trans compartments. The samples were separated by HPLC (Agilent 1200, Böblingen, Germany) using reverse phase columns. The HPLC system was coupled via a Turbo Ion Spray Interface to a Triple Quadropol mass spectrometer API 4000 (Applied Biosystems Applera, Darmstadt, Germany). The permeability was evaluated on the basis of a Papp value, which was calculated using the formula published by Schwab et al. [D. Schwab et al., J. Med. Chem. 46, 1716-1725 (2003)].

[1] = concentration of toxophore 10 μM
[2] = concentration of toxophore 1 μM

## CC[C@H](C)[C@@H]([C@@H](CC(=O)N1CCC[C@H]1[C@H](OC)[C@@H](C)C(=O)N[C@@H](Cc1c[nH]c2ccccc12)C(=O)N1CCCCO1)OC)N(C)C(=O)[C@@H](NC(=O)[C@H](C(C)C)N(C)CCCCCCN1C(=O)CC(SC[C@H](N)C(=O)O)C1=O)C(C)C (stereo partly drawn) [Example 67, N-[6-(3-{[(2R)-2-Amino-2-carboxyethyl]sulphanyl}-2,5-dioxopyrrolidin-1-yl)hexyl]-N-methyl-L-valyl-N-[(3R,4S,5S)-1-{(2S)-2-[(1R,2R)-3-{[(2S)-3-(1H-indol-3-yl)-1-(1,2-oxazinan-2-yl)-1-oxopropan-2-yl]amino}-1-methoxy-2-methyl-3-oxopropyl]pyrrolidin-1-yl}-3-methoxy-5-methyl-1-oxoheptan-4-yl]-N-methyl-L-valinamide] (X2-V[Dil][Dolaproine]W-{Oxazinan2yl(1,2)})
tubulin; [1]
  Tubulin polymerization in the presence of toxophore in [%]. Tubulin polymerization rate at 1 μM MMAF set at 100%: 35%

## CC[C@H](C)[C@@H]([C@@H](CC(=O)N1CCC[C@H]1[C@H](OC)[C@@H](C)C(=O)N[C@@H](Cc1c[nH]c2ccccc12)C(=O)N1CCCCO1)OC)N(C)C(=O)[C@@H](NC(=O)[C@H]([C@@H](C)O)N(C)CCCCCC(=O)NCCCC[C@H](N)C(=O)O)C(C)C [Example 116, N-(6-{[(5S)-5-Amino-5-carboxypentyl]amino}-6-oxohexyl)-N-methyl-L-threonyl-N-[(3R,4S,5S)-1-{(2S)-2-[(1R,2R)-3-{[(2S)-3-(1H-indol-3-yl)-1-(1,2-oxazinan-2-yl)-1-oxopropan-2-yl]amino}-1-methoxy-2-methyl-3-oxopropyl]pyrrolidin-1-yl}-3-methoxy-5-methyl-1-oxoheptan-4-yl]-N-methyl-L-valinamide trifluoroacetate] (X4-V[Dil][Dolaproine]W-{Oxazinan2yl(1,2)})
Caco-2 cells
  Papp (B-A): 0.18 ×10⁻⁶ cm/s

## CC[C@H](C)[C@@H]([C@@H](CC(=O)N1CCC[C@H]1[C@H](OC)[C@@H](C)C(=O)N[C@@H](Cc1ccccc1)C(=O)O)OC)N(C)C(=O)[C@@H](NC(=O)[C@@H](NC)C(C)C)C(C)C [MMAF, Monomethylauristatin F, reference compound] (H-[NMeV]V[Dil][Dolaproine]F-OH)
tubulin; 1 μM
  reduction in the polymerization rate: 40-45%
tubulin; 100 μM
  effect on tubulin polymerization: complete cessation of polymerization; also recorded: inhibited completely
tubulin; [2]
  Tubulin polymerization in the presence of toxophore in [%]. Tubulin polymerization rate at 1 μM MMAF set at 100%: 100%
tubulin; [1]
  Tubulin polymerization in the presence of toxophore in [%]. Tubulin polymerization rate at 1 μM MMAF set at 100%: 34%
tubulin; concentration of toxophore 100 μM
  Tubulin polymerization in the presence of toxophore in [%]. Tubulin polymerization rate at 1 μM MMAF set at 100%: 0%
Caco-2 cells
  Papp (B-A): 7.3 ×10⁻⁶ cm/s

## CC[C@H](C)[C@@H]([C@@H](CC(=O)N1CCC[C@H]1[C@H](OC)[C@@H](C)C(=O)N[C@@H](Cc1c[nH]c2ccccc12)C(N)=O)OC)N(C)C(=O)[C@@H](NC(=O)[C@H](C(C)C)N(C)CCCCCCN1C(=O)CC(SC[C@H](N)C(=O)O)C1=O)C(C)C (stereo partly drawn) [Example 65, N-[6-(3-{[(2R)-2-Amino-2-carboxyethyl]sulphanyl}-2,5-dioxopyrrolidin-1-yl)hexyl]-N-methyl-L-valyl-N-[(3R,4S,5S)-1-{(2S)-2-[(1R,2R)-3-{[(2S)-1-amino-3-(1H-indol-3-yl)-1-oxopropan-2-yl]amino}-1-methoxy-2-methyl-3-oxopropyl]pyrrolidin-1-yl}-3-methoxy-5-methyl-1-oxoheptan-4-yl]-N-methyl-L-valinamide] (X2-V[Dil][Dolaproine]W-NH2)
tubulin; [1]
  Tubulin polymerization in the presence of toxophore in [%]. Tubulin polymerization rate at 1 μM MMAF set at 100%: 64%
Caco-2 cells
  Papp (B-A): 0.5 ×10⁻⁶ cm/s

## CC[C@H](C)[C@@H]([C@@H](CC(=O)N1CCC[C@H]1[C@H](OC)[C@@H](C)C(=O)N[C@@H](Cc1c[nH]c2ccccc12)C(=O)N1CCCCO1)OC)N(C)C(=O)[C@@H](NC(=O)[C@H](C(C)C)N(C)CCCCCC(=O)NCCCC[C@H](N)C(=O)O)C(C)C [Example 105, N-(6-{[(5S)-5-Amino-5-carboxypentyl]amino}-6-oxohexyl)-N-methyl-L-valyl-N-[(3R,4S,5S)-1-{(2S)-2-[(1R,2R)-3-{[(2S)-3-(1H-indol-3-yl)-1-(1,2-oxazinan-2-yl)-1-oxopropan-2-yl]amino}-1-methoxy-2-methyl-3-oxopropyl]pyrrolidin-1-yl}-3-methoxy-5-methyl-1-oxoheptan-4-yl]-N-methyl-L-valinamide trifluoroacetate] (X1-V[Dil][Dolaproine]W-{Oxazinan2yl(1,2)})
tubulin; [2]
  Tubulin polymerization in the presence of toxophore in [%]. Tubulin polymerization rate at 1 μM MMAF set at 100%: 45%
tubulin; [1]
  Tubulin polymerization in the presence of toxophore in [%]. Tubulin polymerization rate at 1 μM MMAF set at 100%: 1%
Caco-2 cells
  Papp (B-A): 0.2 ×10⁻⁶ cm/s

## CC[C@H](C)[C@@H]([C@@H](CC(=O)N1CCC[C@H]1[C@H](OC)[C@@H](C)C(=O)N[C@@H](Cc1c[nH]c2ccccc12)C(=O)O)OC)N(C)C(=O)[C@@H](NC(=O)[C@H](C(C)C)N(C)CCCC(=O)NNC(=O)CCCCCN1C(=O)CC(SC[C@H](N)C(=O)O)C1=O)C(C)C (stereo partly drawn) [Example 63, N-(4-{2-[6-(3-{[(2R)-2-Amino-2-carboxyethyl]sulphanyl}-2,5-dioxopyrrolidin-1-yl)hexanoyl]hydrazino}-4-oxobutyl)-N-methyl-L-valyl-N-[(3R,4S,5S)-1-{(2S)-2-[(1R,2R)-3-{[(1S)-1-carboxy-2-(1H-indol-3-yl)ethyl]amino}-1-methoxy-2-methyl-3-oxopropyl]pyrrolidin-1-yl}-3-methoxy-5-methyl-1-oxoheptan-4-yl]-N-methyl-L-valinamide]
tubulin; [1]
  Tubulin polymerization in the presence of toxophore in [%]. Tubulin polymerization rate at 1 μM MMAF set at 100%: 27%
Caco-2 cells
  Papp (B-A): 0.16 ×10⁻⁶ cm/s

## CC[C@H](C)[C@@H]([C@@H](CC(=O)N1CCC[C@H]1[C@H](OC)[C@@H](C)C(=O)N[C@@H](Cc1ccc(O)cc1)C(=O)O)OC)N(C)C(=O)[C@@H](NC(=O)[C@H](C(C)C)N(C)CCCCCC(=O)NCCCC[C@H](N)C(=O)O)C(C)C [Example 118, N-(6-{[(5S)-5-Amino-5-carboxypentyl]amino}-6-oxohexyl)-N-methyl-L-valyl-N-[(3R,4S,5S)-1-{(2S)-2-[(1R,2R)-3-{[(1S)-1-carboxy-2-(4-hydroxyphenyl)ethyl]amino}-1-methoxy-2-methyl-3-oxopropyl]pyrrolidin-1-yl}-3-methoxy-5-methyl-1-oxoheptan-4-yl]-N-methyl-L-valinamide trifluoroacetate] (X1-V[Dil][Dolaproine]Y-OH)
tubulin; [2]
  Tubulin polymerization in the presence of toxophore in [%]. Tubulin polymerization rate at 1 μM MMAF set at 100%: 90%
tubulin; [1]
  Tubulin polymerization in the presence of toxophore in [%]. Tubulin polymerization rate at 1 μM MMAF set at 100%: 17%

## CC[C@H](C)[C@@H]([C@@H](CC(=O)N1CCC[C@H]1[C@H](OC)[C@@H](C)C(=O)N[C@@H](Cc1c[nH]c2ccccc12)C(=O)N1CCCCO1)OC)N(C)C(=O)[C@@H](NC(=O)[C@H](C(C)C)N(C)CCOCCOCCOCCC(=O)NCCCC[C@H](N)C(=O)O)C(C)C [Example 107, N-[(18S)-18-Amino-18-carboxy-12-oxo-3,6,9-trioxa-13-azaoctadec-1-yl]-N-methyl-L-valyl-N-[(3R,4S,5S)-1-{(2S)-2-[(1R,2R)-3-{[(2S)-3-(1H-indol-3-yl)-1-(1,2-oxazinan-2-yl)-1-oxopropan-2-yl]amino}-1-methoxy-2-methyl-3-oxopropyl]pyrrolidin-1-yl}-3-methoxy-5-methyl-1-oxoheptan-4-yl]-N-methyl-L-valinamide trifluoroacetate] (X3-V[Dil][Dolaproine]W-{Oxazinan2yl(1,2)})
tubulin; concentration of toxophore 1 μM, trifluoroacetate
  Tubulin polymerization in the presence of toxophore in [%]. Tubulin polymerization rate at 1 μM MMAF set at 100%: 60% and 78%

## CC[C@H](C)[C@@H]([C@@H](CC(=O)N1CCC[C@H]1[C@H](OC)[C@@H](C)C(=O)N[C@@H](Cc1ccccc1)C(=O)NCc1ccccc1)OC)N(C)C(=O)[C@@H](NC(=O)[C@H](C(C)C)N(C)CCCC(=O)NNC(=O)CCCCCN1C(=O)CC(SC[C@H](N)C(=O)O)C1=O)C(C)C (stereo partly drawn) [Example 69, N-(4-{2-[6-(3-{[(2R)-2-Amino-2-carboxyethyl]sulphanyl}-2,5-dioxopyrrolidin-1-yl)hexanoyl]hydrazino}-4-oxobutyl)-N-methyl-L-valyl-N-[(3R,4S,5S)-1-{(2S)-2-[(1R,2R)-3-{[(2S)-1-(benzylamino)-1-oxo-3-phenylpropan-2-yl]amino}-1-methoxy-2-methyl-3-oxopropyl]pyrrolidin-1-yl}-3-methoxy-5-methyl-1-oxoheptan-4-yl]-N-methyl-L-valinamide]
tubulin; [2]
  Tubulin polymerization in the presence of toxophore in [%]. Tubulin polymerization rate at 1 μM MMAF set at 100%: 110%
